This is an account of results in US20160220720A1, “COMPOSITIONS COMPRISING POLYAMINE POLYMER COMPATIBLE PERFUME MATERIALS” (priority 2013, published 2016).

Values joined by “and” are separate entries in the source; they are usually repeats but may differ in a detail not shown here. Equal entries are not always repeated.

A short description of one data set: GC-MS head space ratio of perfume raw materials with versus without polyamine polymer (R). Particulars: aqueous fabric refresher formulation pH 6.8, 0.05% Lupamin 1595; head space after 1 hr room temperature and 20 minutes at 40° C.; Control without polyamine polymer = 1.000. In kind it is physicochemical. The method, then: R=head space of aqueous composition containing polyamine/head space of aqueous composition nil polyamine polymer
Polyamine polymer perfume interactions were studied in aqueous fabric refresher formulations. Aqueous formulations containing a perfume mixture and a polyamine polymer was prepared according to Table 2 and studied against a control fabric refresher formulation without a polyamine polymer. Studies were conducted using 500 ppm (0.05%) polyamine polymer and perfume mixtures at 2 levels (500 ppm (0.05%) and 10,000 ppm […]).
GC-MS was used to study polymer perfume aldehyde interactions using the formulations prepared in Example 1. For the GC-MS analysis, 2 ml of each sample was transferred into 20 ml headspace vial, equilibrated at room temperature for 1 hr, and incubated at 40° C. for 20 minutes. Then, 1 ml of head space was injected into GC-MS using 1 to 10 split, and perfume raw material intensities were measured. Perfume raw material peak area ratios were then calculated using the control sample without a polyamine polymer.
PRMs that react with polyamine polymer have a headspace concentration less than 1.00 with respect to the normalized Control.
As to `CC(=O)c1ccc(C(C)=O)cc1` [1,4-diacety lbenzene], the “GC-MS head space peak area ratio normalized to Control” value is given as 0.913.
Regarding `CC(=O)c1cccs1` [2-acetyl thiophene], the “GC-MS head space peak area ratio normalized to Control” value is 0.794.
On to `CCCC(C)C=O` (stereo not drawn) [2-methyl petanal], for which the “GC-MS head space peak area ratio normalized to Control” value is listed as 0.864.
For the compound `CC(C)=CCCC(C)CCCC(C)C=O` (stereo not drawn) [Adoxal], the “GC-MS head space peak area ratio normalized to Control” value is listed as 0.751.
Still for that read-out and setting: the same measure for `O=Cc1ccccc1` [Benzaldehyde]: 1.030; for `CC(=O)/C=C/C1=C(C)CCCC1(C)C` [Beta Ionone]: 1.222.
On the same count and under the same terms, the same measure for `C=C(C)C1CC=C(C)C(=O)C1` (stereo not drawn) [Carvone]: 1.103.
With `CC(C)=CCCC(C)CC=O` (stereo not drawn) [Citronellal], the “GC-MS head space peak area ratio normalized to Control” value was 2.597.
Turning to `CC(C)c1ccc(C=O)cc1` [Cuminaldehyde], the “GC-MS head space peak area ratio normalized to Control” value is reported as 0.977.
Regarding `C/C=C/C(=O)C1C(C)C=CCC1(C)C` (stereo not drawn) [Delta-damascone], the “GC-MS head space peak area ratio normalized to Control” value amounted to 1.228.
Consider `O=CCCC=C1CC2CC1C1CCCC21` (stereo not drawn) [Dupical], for which the “GC-MS head space peak area ratio normalized to Control” value was found to be 0.932.
As for `CCCCCC=O` [Hexanal], the “GC-MS head space peak area ratio normalized to Control” value is reported as 0.222.
Consider `CCCCCCC(C=O)=Cc1ccccc1` [Hexylcinnamicaldehyde], for which the “GC-MS head space peak area ratio normalized to Control” value is 1.480.
Still for that read-out and setting: the same measure for `CCCCCCCCCCCC=O` [Lauric Aldehyde]: 0.169.
Take `CCCCCCCCCC(C)C=O` (stereo not drawn) [Methyl Nonyl Acetaldehyde]: the “GC-MS head space peak area ratio normalized to Control” value was determined as 0.772.
For the compound `CCCCCCCCC(C)C=O` (stereo not drawn) [Methyl Octyl acetaldehyde], the “GC-MS head space peak area ratio normalized to Control” value is recorded as 0.836.
The same measure, in the same setting: the same measure for `CC(C)=CCC/C(C)=C\C=O` [Neral]: 0.261; for `CCCCCCCCC=O` [Nonaldehyde]: 0.209; for `CC(C)CCCC(C)CC=O` (stereo not drawn) [Tetrahydrogeranial]: 0.415.
The same measure, in the same setting: then `CCC/C=C/C=O` [Trans-2-hexenal], with 0.226.
Turning to `CCCCCCCCCCC=CC=O` [Tridecenal], the “GC-MS head space peak area ratio normalized to Control” value worked out at 0.470.
For `COc1ccc(C=O)cc1` [p-Anisaldehyde], the “GC-MS head space peak area ratio normalized to Control” value is 1.521.

The data set is the same for the next values; noted with them: aqueous fabric refresher formulation pH 6.8, 0.05% Lupamin 1595; head space after 1 hr room temperature and 20 minutes at 40° C.; Control without polyamine polymer = 1.000; listed as Kaovone.
For the compound `CC(=O)/C(C)=C(/C)C(C)C(C)(C)C` (stereo not drawn) [Koavone], the “GC-MS head space peak area ratio normalized to Control” value is 1.185 and 1.159 and 1.171.

Still in this data set, the particulars now being: head space with polyamine polymer / head space nil polyamine polymer.
As to `CC(C)=CCCC(C)CCCC(C)C=O` (stereo not drawn) [Adoxal], the “Obs. Lupamin Ratio” value was 0.79.
Consider `CC(C)=CCC/C(C)=C/C=O` [Citral], for which the “Obs. Lupamin Ratio” value is given as 0.23.
As to `O=Cc1ccc2c(c1)OCO2` [Heliotropin], the “Obs. Lupamin Ratio” value is given as 1.65.
Still for that read-out and setting: the same measure for `CC1(C)CCc2ccc(CCC=O)cc21` [Hivernal]: 0.17.
Regarding `CC(=O)/C(C)=C(/C)C(C)C(C)(C)C` (stereo not drawn) [Koavone], the “Obs. Lupamin Ratio” value is 1.17.
With `O=CC1CCC2C3CCC(C3)C12` (stereo not drawn) [Melozone], the “Obs. Lupamin Ratio” value stood at 0.28.
For `CCCCCCCCC=O` [Nonaldehyde], the “Obs. Lupamin Ratio” value turned out to be 0.21.
As to `CC(C)CCCC(C)CC=O` (stereo not drawn) [Tetrahydrogeranial], the “Obs. Lupamin Ratio” value was 0.42.
Turning to `COc1ccc(C=O)cc1` [p-Anisaldehyde], the “Obs. Lupamin Ratio” value stood at 1.52.

Experiment in a further data set: not given
Particulars: ambient temperature; cited from earlier work.
Take “hydroxypropyl modified beta cyclodextrin”: the “water solubility (benchmark)” value is no less than 60 g/100 ml.
